The test deals with Substance-P receptor (Homo sapiens, UniProt P25103). In words: Tested for the inhibitory potency against Neurokinin 1 NK1 receptor.
Sequence of Substance-P receptor (P25103 whole entry): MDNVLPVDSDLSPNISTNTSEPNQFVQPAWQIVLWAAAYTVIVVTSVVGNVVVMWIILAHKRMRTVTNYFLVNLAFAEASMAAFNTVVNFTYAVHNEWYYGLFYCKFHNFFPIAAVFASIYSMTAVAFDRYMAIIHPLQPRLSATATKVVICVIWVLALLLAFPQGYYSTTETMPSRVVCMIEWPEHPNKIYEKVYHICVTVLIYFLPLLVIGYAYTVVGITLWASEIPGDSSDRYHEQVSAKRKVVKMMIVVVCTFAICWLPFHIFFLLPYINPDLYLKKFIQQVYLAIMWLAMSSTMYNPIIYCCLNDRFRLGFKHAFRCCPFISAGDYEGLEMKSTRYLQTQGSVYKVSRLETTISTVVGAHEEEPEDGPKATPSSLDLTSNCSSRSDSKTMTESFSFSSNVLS
In general, IC50 refers to the concentration at which inhibition is half-maximal. Low values mean higher potency, high ones lower potency. Consider `Cc1cc(C)cc(C(=O)N2C3CC(NCc4ccnc5ccccc45)CC2C(c2ccccc2)C3)c1` (racemic; form 2), for which the IC50 is 640 nM. This lies in the sub-micromolar range.
Next, `Cc1cc(C)cc(C(=O)N2C3CC(NCc4ccnc5ccccc45)CC2C(c2ccccc2)C3)c1` (racemic; form 1): 44 nM; `Cc1cc(C)cc(C(=O)N2C3C=C(c4ccccc4)C2CC(NCc2ccnc4ccccc24)C3)c1` (racemic): 1000 nM.

The values are drawn from ChEMBL document CHEMBL1150466, “Studies on the active conformation of NK1 antagonist CGP 49823. Part 1. Synthesis of conformationally restricted analogs” (Bioorg Med Chem Lett, 1997).
